Measured values: ChEMBL document CHEMBL1154198, “Chemical genetics of Plasmodium falciparum” (Nature, 2010)

What was measured:
Plasmodium falciparum [1] = assay: ST_JUDE: Plasmodium falciparum 3D7 EC50 (uM) as measured by SYBR green dye; format: functional, organism-based
Plasmodium falciparum [2] = assay: ST_JUDE: Plasmodium falciparum K1 EC50 (uM) as measured by SYBR green dye; format: functional, organism-based

SMILES | EC50 (Plasmodium falciparum [1]) | EC50 (Plasmodium falciparum [2])
CCOC(=O)c1ccc(-n2[nH]c(-c3ccccc3)cc2=O)cc1 | > 15 µM | 8.96 µM
O=C(c1cccc(Cl)c1)N1CCN(c2ccc([N+](=O)[O-])c(NC3CC3)c2)CC1 | 3.76 µM | 3.68 µM
CCCOc1ccccc1C(=O)Nc1nonc1-c1ccc(OCC)c(OCC)c1 | > 15 µM | 0.595 µM
O=C(Nc1ccc(-c2nc3cc(NC(=O)c4ccc(Br)o4)ccc3[nH]2)cc1)c1ccc(Br)o1 | 2.59 µM | 3.23 µM
CN1CCN(c2ccc(Nc3ccnc4cc(Cl)ccc34)cc2Cl)CC1 | 0.0625 µM | 0.0571 µM
CCN1CCN(CCCNC(=O)c2cc3cc4ccc(Cl)cc4nc3o2)CC1 | 4.54 µM | > 15 µM
COc1ccc(CN2CCN(CC(C)(C)C)C(CCO)C2)c(O)c1 (centres undefined) | 7.57 µM | 3.73 µM
COc1ccc(OC)c(C2C(C(=O)OC(C)C)=C(C)N=c3s/c(=C\c4ccc(O)cc4)c(=O)n32)c1 (centres undefined) | > 15 µM | 1.39 µM
COc1cc(CNCCCN(C)C)ccc1OCc1ccc(F)cc1Cl | 1.59 µM | 6.63 µM
O=C(Cc1ccccc1)N(Cc1cccnc1)c1nc2ccc(Cl)cc2s1 | > 15 µM | > 15 µM
CCOc1cc(CN(C)Cc2nnc(SCc3ccccc3C)n2CC2CCCO2)ccc1OC (centres undefined) | 2.29 µM | 2.42 µM
CC(C)CCNCC(O)CON=C1c2ccccc2-c2ccccc21 (centres undefined) | 1.71 µM | 0.735 µM
CCOC(=O)c1ccc(OCC2c3cc(OC)c(OC)cc3CCN2C(=O)Nc2ccccc2)cc1 (centres undefined) | 4.03 µM | 0.776 µM
O=C1C(Nc2ccc(I)cc2)=C(N2CCOCC2)C(=O)c2ccccc21 | 0.256 µM | 0.181 µM
NNc1nc(Nc2ccc(F)cc2)nc(N2CCOCC2)n1 | 7.07 µM | 5.15 µM
N=C(N/N=C\c1ccc(Br)cc1)N/N=C\c1ccc(Br)cc1 | 2.3 µM | > 15 µM
COc1ccc2c(=O)cc(C(Cl)(Cl)Cl)oc2c1 | > 15 µM | 1.54 µM
CCCN1CCN(CCCNC(=O)c2ccc3c(c2)sc2nc(-c4cccc(OC)c4)cn23)CC1 | 1.21 µM | 3.18 µM
CCN(CC)c1cc(C)c2cc(NC(=O)c3ccc(Cl)c([N+](=O)[O-])c3)ccc2n1 | > 15 µM | > 15 µM
O=C(NC(NC(=S)Nc1ccc(Cl)cc1)C(Cl)(Cl)Cl)c1ccccc1F (centres undefined) | 2.73 µM | 4.07 µM
Cc1cc(N2CCN(C)CC2)nc2ccc(NC(=S)NCCN3CCN(c4ccccc4F)CC3)cc12 | 2 µM | 6.21 µM

SMILES | EC50 (Plasmodium falciparum [1]) | EC50 (Plasmodium falciparum [2])
Cc1ccc(Oc2c(C(F)(F)F)oc3c(CN4CCN(C)CC4)c(O)ccc3c2=O)cc1 | 1.43 µM | 1.22 µM
O=[N+]([O-])c1ccc(C2Nc3c(O)ccc(Br)c3C3C=CCC32)cc1 (centres undefined) | 7 µM | 2.71 µM
CC(C)(C)c1ccc(C(=O)Nc2cccc(NC(=O)c3cccs3)c2)cc1 | > 15 µM | > 15 µM
Cc1ccc(C(C)(C)C)c(OCCCCn2ccnc2)c1 | 6.66 µM | 5.68 µM
Cc1cc(N2CCN(C)CC2)nc2ccc(NC(=S)NC3CCN(Cc4ccccc4)CC3)cc12 | 1.2 µM | 5.8 µM
COc1ccc(OC)c2sc(N(Cc3cccnc3)C(=O)c3cccc(Cl)c3)nc12 | > 15 µM | 1.65 µM
CCc1ccc(C(Nc2ccccn2)c2ccc3cccnc3c2O)cc1 (centres undefined) | 2.31 µM | 2.72 µM
O=C(CN(Cc1ccc(F)cc1)S(=O)(=O)c1ccc(Cl)cc1)Nc1ccccc1Cl | > 15 µM | 1.46 µM
COc1ccc(OCC(O)CN2CCN(c3ccc(OC)cc3)CC2)cc1 (centres undefined) | > 15 µM | > 15 µM
O=S(=O)(Nc1ccc(-c2ccc(N3CCCC3)nn2)cc1)c1ccc(Br)cc1 | > 15 µM | > 15 µM
COc1ccc(CCNC(=S)Nc2ccccc2Cl)cc1Br | 0.96 µM | 1.6 µM
CCN(CC)CCOc1ccc2c(c1)C(=NO)c1cc(OCCN(CC)CC)ccc1-2 | 1.49 µM | 2.27 µM
COCCN1CCC(CN(Cc2ccncc2)Cc2ccc(CC(C)C)cc2)CC1 | 6.73 µM | 5.3 µM
CN(C)CCNC(=O)c1ccc2c(c1)sc1nc(-c3ccc(F)cc3)cn12 | 3.19 µM | 3.54 µM
CC(C)CC(=O)NC(NC(=S)Nc1cccc(Cl)c1)C(Cl)(Cl)Cl (centres undefined) | 1.73 µM | 2.5 µM
CN(C)CCCNc1c2c(nc3ccccc13)CCC2 | > 15 µM | > 15 µM
CCN(CC)C(=O)CSc1nc2cc(OC)c(OC)cc2c2nc(-c3ccccc3)nn12 | > 15 µM | 0.335 µM
CCOc1ccccc1NC(=O)C(C)Oc1cccc(Br)c1 (centres undefined) | > 15 µM | > 15 µM
COc1cc2c(cc1OC)C(COc1cccc(C(F)(F)F)c1)N(C(=O)C(C)(C)C)CC2 (centres undefined) | 6.77 µM | 8.91 µM
O=C(/C=C/c1ccco1)Nc1ccc(C(F)(F)F)cc1 | > 15 µM | > 15 µM
O=S(=O)(NCC(c1cccnc1)N1CCN(c2ccccc2F)CC1)c1ccc(F)cc1 (centres undefined) | > 15 µM | 5.33 µM

SMILES | EC50 (Plasmodium falciparum [1]) | EC50 (Plasmodium falciparum [2])
O=C(O)c1cccc(NC2=C(n3nnc4ccccc43)C(=O)c3ccccc3C2=O)c1 | > 15 µM | 4.19 µM
Cc1nc2nc(NCc3cccc(Br)c3)nn2c(O)c1C | > 15 µM | > 15 µM
CCOC(=O)c1ccc2nc(C)cc(Nc3ccc(C)cc3C)c2c1 | > 15 µM | > 15 µM
O=C(N/N=C/c1nc2ccccc2[nH]1)c1cccc(Cl)c1 | 1.65 µM | > 15 µM
Cc1ccc(Nc2cc(C)nc(N3CCN(C(=O)Nc4cccc(Cl)c4)CC3)n2)cc1 | > 15 µM | > 15 µM
COc1ccc(CN2CCCC(N3CCN(c4ccc(F)cc4)CC3)C2)c(O)c1 (centres undefined) | 1.61 µM | 1.04 µM
CCCc1cc(O)nc(-n2nc(C)cc2NC(=O)c2cc(C(F)(F)F)cc(C(F)(F)F)c2)n1 | > 15 µM | > 15 µM
COc1ccc(C(=O)Nc2cccc(-c3nc4ccccc4s3)c2)cc1[N+](=O)[O-] | > 15 µM | > 15 µM
CCOc1ccc(/C=C(/C#N)c2nc3ccccc3[nH]2)cc1OC | 3.39 µM | 4.68 µM
CC(=O)c1cccc(NC(=O)C2c3ccccc3C(=O)N(C3CCCC3)C2c2cccs2)c1 (centres undefined) | 1.75 µM | 2.02 µM
CN(C)CCCNCc1ccc2[nH]c3ccccc3c2c1 | 0.35 µM | > 15 µM
COc1cc(/C=C(\C#N)C(=O)Nc2ccccc2F)cc(OC)c1OC | > 15 µM | > 15 µM
COc1ccc(N2C(=O)c3cccnc3C2Nc2ccc(C)cc2Cl)cc1 (centres undefined) | 4 µM | 3.84 µM
COc1ccc(OC)c(/C=N/Nc2nc3ccccc3[nH]2)c1 | 3.64 µM | > 15 µM
OC(CN1CCN(C/C=C/c2ccccc2)CC1)Cn1c2ccccc2c2ccccc21 (centres undefined) | 1.4 µM | 0.65 µM
Cc1cc(C)c2c(=O)cc(C(Cl)(Cl)Cl)oc2c1 | > 15 µM | > 15 µM
COc1ccc2nc(N(Cc3cccnc3)C(=O)CCc3ccccc3)sc2c1 | > 15 µM | 3.53 µM
CCOC(=O)C1=C(c2ccc(F)cc2)C(=O)c2ccccc2C1=O | 2.28 µM | 1.71 µM
CC(C)OC(=O)c1cc(NC(=S)Nc2ccc([N+](=O)[O-])cc2)cc(C(=O)OC(C)C)c1 | > 15 µM | 1.55 µM
Cc1n(C)c2ccccc2[n+]1CC(=O)c1ccc([N+](=O)[O-])cc1 | 1.61 µM | 2.09 µM
